Legend:
[1] = system: donor T cells, Treg cells and macrophages in the intestine; experiment: Flow cytometry of intestinal cellular contents after allo-BMT; assay type: in vivo, mouse
From the text: To analyze immunophenotype surface markers, lymphocytes contained in the IEC fraction or spleen were harvested, stained using recommended dilutions indicated by manufacturer product sheets and gated on CD4-conjugated PerCP/Cy5.5 (Clone: GK1.5) or CD8-conjugated APC (Clone: 53-6.7) and configurations of the following per mouse in duplicate: CD69-PE (Clone: H1.2F3), CD62L-PE (Clone: MEL-14), CD25-PE (Clone: 3C7), CD44-PerCP/Cy5.5 (Clone: IM7), CD44-APC (Clone: IM7), FoxP3-APC (Clone: FJK-16s). Stained cells were then analyzed with an Accuri C6 Flow Cytometer (BD Biosciences). IECs were stained with CD326-conjugated APC (Clone: G8.8) and DAPI and sorted to >98% purity using a FACSAria III (BD Biosciences) gating on live cells.
The total numbers of CD45.1+ cells recovered from the intestinal lamina propria were not different between vehicle- and butyrate-treated allo-BMT recipients. By contrast, intestinal infiltration of donor CD4+ and CD8+ T cells and activated T cells (CD69+ or CD44hi) was decreased in animals that received local intragastric butyrate administration (FIG. 4a). However, the ratio of donor Treg cells to effector T cells was not different in the intestines of these animals (FIG. 4b). […] However, no difference in the total number of donor macrophages in the intestine of allogenenic recipients that were treated with either vehicle or butyrate was observed (FIG. 4c).

[2] = system: allogeneic (C57BL/6J→BALB/c) BMT recipients; experiment: MHC-mismatched allo-BMT GVHD model with intragastric butyrate; assay type: in vivo, mouse
Experimental: BMTs were performed as previously described (Reddy, P. et al. A crucial role for antigen-presenting cells and alloantigen expression in graft-versus-leukemia responses. Nat. Med. 11, 1244-1249 (2005); 15). Briefly, syngeneic (BALB/c→BALC/c or C57BL/6J→C57BL/6J) and allogeneic (C57BL/6J→BALB/c or C3H.sw→C57BL/6J) recipients received lethal irradiation. On day −1, BALB/c recipients received a total of 800 cGy of irradiation (split dose separated by 3 hours) and B6 animals received a single dose of 1000 cGy. Donor splenic CD90.2+ T cells were magnetically separated using an autoMACs (Miltenyi Biotec; Bergisch Gladbach, Germany) and 0.5×10^6 to 2.5×10^6 T cells were transferred to BALB/c and C57BL/6J recipients. 5×10^6 donor whole or TCD bone marrow was transferred to all recipients. Survival was monitored daily and the recipient body weight and GVHD clinical scores were determined weekly, as described previously42. Histopathologic analysis of the gastrointestinal (GI) tract was performed as described (Reddy, P. et al. A crucial role for antigen-presenting cells and alloantigen expression in graft-versus-leukemia responses. Nat. Med. 11, 1244-1249 (2005)). Animals received vehicle (sterile PBS, 0.0004 g Na+ per dose) or sodium butyrate (10 mg/kg, 0.00004 g Na+ per dose) by flexible 20G-1.5″ intragastric gavage needle daily for 1 week, then every other day thereafter.
Systemic administration of HDACi decreases acute GVHD (Reddy, P. et al. Histone deacetylase inhibitor suberoylanilide hydroxamic acid reduces acute graft-versus-host disease and preserves graft-versus-leukemia effect. Proc Natl Acad Sci USA 101, 3921-3926 (2004); Reddy, P. et al. Histone deacetylase inhibition modulates indoleamine 2,3-dioxygenasedependent DC functions and regulates experimental graft-versus-host disease in mice. J. Clin. Invest. 118, 2562-2573 (2008); Sun, Y. et al. Cutting edge: Negative regulation of dendritic cells through acetylation of the nonhistone protein STAT-3. J Immunol 182, 5899-5903 (2009)). It was therefore determined if increasing local levels of endogenous HDACi, butyrate, would impact GVHD severity. Again using the C57BL/6J into Balb/c model, vehicle control or butyrate was administered via daily intragastric gavage for one week, followed by administration every other day for the remainder of the experiment. […] Next, to further evaluate the magnitude of the butyrate-induced protective effect, GVHD mortality was determined utilizing the MHC disparate B6 into BALB/c model.

CD326+ IECs = experiment: IEC viability assay with or without irradiation (6 Gy); assay type: cell-based, mouse; conditions: ex vivo
Experimental: Primary intestinal epithelial cells (IECs) were obtained from C57BL/6J mice as described previously (Lefrangois, L. & Lycke, N. Isolation of Mouse Small Intestinal Intraepithelial Lymphocytes, Peyer's Patch, and Lamina Propria Cells. (John Wiley & Sons, Inc., 2001)). Briefly, luminal contents of intestine were flushed with CMF solution. Intestine was then minced into 0.5 cm pieces, washed with CMF four times, transferred to CMF/FBS/EDTA, and incubated at 37° C. for 60 minutes (shaking tubes every 10 minutes). Supernatant containing IECs was then transferred through […] cell filter followed by incubation on ice for 10 minutes to allow sedimentation. Supernatant was again transferred through a 75 μM cell filter. CD326+ IECs were next purified utilizing either FACS or anti-APC magnetic microbeads (Miltenyi Biotec Ltd., Auburn, Calif.) and an autoMACs (Miltenyi Biotec). […]
The potential mechanisms that contribute to butyrate-induced protection from severe GVHD were explored. […] The ability of butyrate-treated IECs to withstand damage mediated by alloreactive T cells was determined by isolating and culturing primary IECs with butyrate or vehicle control, overnight. […] Because butyrate is a primary energy source for IECs 1-13, it was next determined whether butyrate enhances survival and growth of IECs in vitro. […]

[3] = intragastric butyrate daily 1 week then every other day, vs vehicle

SMILES: CCCC(=O)[O-].[Na+] [butyrate, sodium butyrate]
- ratio of donor Treg cells to effector T cells in the intestines ([1]; 21 days after allo-BMT): not different
- intestinal infiltration of donor CD4+ and CD8+ T cells and activated T cells (CD69+ or CD44hi) ([1]; 21 days after allo-BMT, intragastric butyrate): decreased
- total numbers of CD45.1+ cells recovered from the intestinal lamina propria ([1]; 21 days after allo-BMT, vehicle vs butyrate): not different
- total number of donor macrophages in the intestine ([1]; allogeneic recipients, vehicle vs butyrate): no difference
- histological scores in the intestines ([2]; 21 days following BMT, major MHC mismatch model): decreased histological scores
- GVHD mortality / survival ([2]; B6 into BALB/c, higher doses of T cells): significant GVHD survival benefit
- GVHD clinical scores [2, 3]: decreased
- survival [2, 3]: increased survival
- weight loss [2, 3]: decreased weight loss
- irradiation-induced apoptosis of IECs (CD326+ IECs; irradiation 6 Gy): conferred protection
- toxicity to IECs (CD326+ IECs; no irradiation): not toxic

From patent US11260083B2, “Compositions and methods for treating and preventing graft versus host disease” (The Regents of the University of Michigan, priority 2016, dated 2022)
